Measurements from the NIST ThermoML archive (doi:10.1016/j.jct.2013.10.034).
± gives the expanded uncertainty stated by the source.

Assays:
[1] = Liquid; for viscosity / mass density: 100 kPa; for viscosity: Falling or rolling sphere viscometry; for mass density: Vibrating tube method; for vapor or sublimation pressure: Ebulliometric method (Recirculating still)
[2] = xn = mol fraction of the nth substance listed; conditions: 100 kPa, Liquid, x2 = 0; for viscosity: Falling or rolling sphere viscometry; for mass density: Vibrating tube method

CCCC[N+]1(C)CCCCC1.N#C[N-]C#N [1-butyl-1-methylpiperidinium dicyanamide]
viscosity ([1]; 298.15 K): 123.3 ± 20 mPa·s | mass density ([1]; 298.15 K): 1016.13 ± 0.5 kg/m3 | viscosity ([1]; 303.15 K): 92.97 ± 15 mPa·s | mass density ([1]; 303.15 K): 1012.98 ± 0.5 kg/m3 | viscosity ([1]; 308.15 K): 75.58 ± 12 mPa·s | mass density ([1]; 308.15 K): 1010.65 ± 0.49 kg/m3 | viscosity ([1]; 313.15 K): 60.93 ± 9.8 mPa·s | mass density ([1]; 313.15 K): 1007.92 ± 0.49 kg/m3 | viscosity ([1]; 318.15 K): 49.79 ± 8 mPa·s | mass density ([1]; 318.15 K): 1005.2 ± 0.49 kg/m3 | viscosity ([1]; 323.15 K): 41.31 ± 6.6 mPa·s | mass density ([1]; 323.15 K): 1002.47 ± 0.48 kg/m3 | viscosity ([1]; 328.15 K): 34.72 ± 5.6 mPa·s | mass density ([1]; 328.15 K): 999.77 ± 0.48 kg/m3 | viscosity ([1]; 333.15 K): 29.45 ± 4.7 mPa·s | mass density ([1]; 333.15 K): 997.08 ± 0.48 kg/m3 | viscosity ([1]; 338.15 K): 23.31 ± 3.7 mPa·s | mass density ([1]; 338.15 K): 994.39 ± 0.48 kg/m3 | viscosity ([1]; 343.15 K): 21.98 ± 3.5 mPa·s | mass density ([1]; 343.15 K): 991.72 ± 0.48 kg/m3

CCCC[N+]1(C)CCCC1.N#CN=C=[N-] [1-butyl-1-methylpyrrolidinium dicyanamide]
viscosity ([1]; 298.15 K): 34.74 ± 5.6 mPa·s | mass density ([1]; 298.15 K): 1019.2 ± 1.4 kg/m3 | viscosity ([1]; 303.15 K): 29.33 ± 4.7 mPa·s | mass density ([1]; 303.15 K): 1016.38 ± 1.4 kg/m3 | viscosity ([1]; 308.15 K): 25.09 ± 4 mPa·s | mass density ([1]; 308.15 K): 1013.58 ± 1.3 kg/m3 | viscosity ([1]; 313.15 K): 21.7 ± 3.5 mPa·s | mass density ([1]; 313.15 K): 1010.79 ± 1.3 kg/m3 | viscosity ([1]; 318.15 K): 18.95 ± 3 mPa·s | mass density ([1]; 318.15 K): 1008 ± 1.3 kg/m3 | viscosity ([1]; 323.15 K): 16.72 ± 2.7 mPa·s | mass density ([1]; 323.15 K): 1005.23 ± 1.3 kg/m3 | viscosity ([1]; 328.15 K): 14.84 ± 2.4 mPa·s | mass density ([1]; 328.15 K): 1002.48 ± 1.3 kg/m3 | viscosity ([1]; 333.15 K): 13.28 ± 2.1 mPa·s | mass density ([1]; 333.15 K): 999.74 ± 1.3 kg/m3 | viscosity ([1]; 338.15 K): 11.96 ± 1.9 mPa·s | mass density ([1]; 338.15 K): 997 ± 1.3 kg/m3 | viscosity ([1]; 343.15 K): 10.82 ± 1.7 mPa·s | mass density ([1]; 343.15 K): 994.28 ± 1.3 kg/m3

O [water]
viscosity ([1]; 298.15 K): 0.89 ± 0.14 mPa·s | viscosity ([1]; 303.15 K): 0.808 ± 0.13 mPa·s | viscosity ([1]; 308.15 K): 0.74 ± 0.12 mPa·s | viscosity ([1]; 313.15 K): 0.681 ± 0.11 mPa·s | mass density ([1]; 313.15 K): 992.15 ± 0.2 kg/m3 | viscosity ([1]; 318.15 K): 0.63 ± 0.1 mPa·s | mass density ([1]; 318.15 K): 990.14 ± 0.2 kg/m3 | viscosity ([1]; 323.15 K): 0.593 ± 0.095 mPa·s | mass density ([1]; 323.15 K): 987.93 ± 0.2 kg/m3 | viscosity ([1]; 328.15 K): 0.56 ± 0.09 mPa·s | mass density ([1]; 328.15 K): 985.61 ± 0.2 kg/m3 | vapor or sublimation pressure ([1]; 328.15 K): 15.8 ± 0.5 kPa | viscosity ([1]; 333.15 K): 0.528 ± 0.085 mPa·s | mass density ([1]; 333.15 K): 983.17 ± 0.2 kg/m3 | viscosity ([1]; 338.15 K): 0.5 ± 0.08 mPa·s | mass density ([1]; 338.15 K): 980.3 ± 0.2 kg/m3 | vapor or sublimation pressure ([1]; 338.15 K): 25.1 ± 0.5 kPa | viscosity ([1]; 343.15 K): 0.473 ± 0.076 mPa·s | mass density ([1]; 343.15 K): 978.1 ± 0.2 kg/m3 | vapor or sublimation pressure ([1]; 348.15 K): 38.6 ± 0.5 kPa | vapor or sublimation pressure ([1]; 358.15 K): 57.9 ± 0.5 kPa | vapor or sublimation pressure ([1]; 368.15 K): 84.4 ± 0.5 kPa

O [water] + CCCC[N+]1(C)CCCC1.N#CN=C=[N-]
viscosity ([2]; 298.15 K): 0.89 ± 0.14 mPa·s | viscosity ([2]; 303.15 K): 0.808 ± 0.13 mPa·s | viscosity ([2]; 308.15 K): 0.74 ± 0.12 mPa·s | viscosity ([2]; 313.15 K): 0.681 ± 0.11 mPa·s | mass density ([2]; 313.15 K): 992.15 ± 0.2 kg/m3 | viscosity ([2]; 318.15 K): 0.63 ± 0.1 mPa·s | mass density ([2]; 318.15 K): 990.14 ± 0.2 kg/m3 | viscosity ([2]; 323.15 K): 0.593 ± 0.095 mPa·s | mass density ([2]; 323.15 K): 987.93 ± 0.2 kg/m3 | viscosity ([2]; 328.15 K): 0.56 ± 0.09 mPa·s | mass density ([2]; 328.15 K): 985.61 ± 0.2 kg/m3 | viscosity ([2]; 333.15 K): 0.528 ± 0.085 mPa·s | mass density ([2]; 333.15 K): 983.17 ± 0.2 kg/m3 | viscosity ([2]; 338.15 K): 0.5 ± 0.08 mPa·s | mass density ([2]; 338.15 K): 980.3 ± 0.2 kg/m3 | viscosity ([2]; 343.15 K): 0.473 ± 0.076 mPa·s | mass density ([2]; 343.15 K): 978.1 ± 0.2 kg/m3

O [water] + CCCC[N+]1(C)CCCCC1.N#C[N-]C#N
viscosity ([2]; 298.15 K): 0.89 ± 0.14 mPa·s | viscosity ([2]; 303.15 K): 0.808 ± 0.13 mPa·s | viscosity ([2]; 308.15 K): 0.74 ± 0.12 mPa·s | viscosity ([2]; 313.15 K): 0.681 ± 0.11 mPa·s | mass density ([2]; 313.15 K): 992.15 ± 0.2 kg/m3 | viscosity ([2]; 318.15 K): 0.63 ± 0.1 mPa·s | mass density ([2]; 318.15 K): 990.14 ± 0.2 kg/m3 | viscosity ([2]; 323.15 K): 0.593 ± 0.095 mPa·s | mass density ([2]; 323.15 K): 987.93 ± 0.2 kg/m3 | viscosity ([2]; 328.15 K): 0.56 ± 0.09 mPa·s | mass density ([2]; 328.15 K): 985.61 ± 0.2 kg/m3 | viscosity ([2]; 333.15 K): 0.528 ± 0.085 mPa·s | mass density ([2]; 333.15 K): 983.17 ± 0.2 kg/m3 | viscosity ([2]; 338.15 K): 0.5 ± 0.08 mPa·s | mass density ([2]; 338.15 K): 980.3 ± 0.2 kg/m3 | viscosity ([2]; 343.15 K): 0.473 ± 0.076 mPa·s | mass density ([2]; 343.15 K): 978.1 ± 0.2 kg/m3
